Data reported in patent US7498404B2, “Compositions, methods and uses for a novel family of peptides” (priority 2004, dated 2009).

T1: Module 7 A-domain protein (Brevibacillus texasporus, UniProt Q2VQ15)
T1 sequence (Q2VQ15 3560-4063): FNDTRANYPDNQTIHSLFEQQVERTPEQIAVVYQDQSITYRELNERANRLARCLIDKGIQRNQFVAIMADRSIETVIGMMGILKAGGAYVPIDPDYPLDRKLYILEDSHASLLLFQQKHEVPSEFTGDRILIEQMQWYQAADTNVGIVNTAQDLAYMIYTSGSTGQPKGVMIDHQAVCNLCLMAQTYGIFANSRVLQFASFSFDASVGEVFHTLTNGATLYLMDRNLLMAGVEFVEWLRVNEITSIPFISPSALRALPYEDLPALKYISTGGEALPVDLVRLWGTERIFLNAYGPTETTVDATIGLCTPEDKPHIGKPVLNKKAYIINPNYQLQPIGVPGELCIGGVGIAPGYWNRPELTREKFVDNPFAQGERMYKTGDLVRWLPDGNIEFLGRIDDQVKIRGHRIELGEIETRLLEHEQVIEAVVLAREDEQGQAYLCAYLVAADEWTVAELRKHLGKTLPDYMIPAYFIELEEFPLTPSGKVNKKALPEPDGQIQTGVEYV

B1: Module 4 A-domain protein (Brevibacillus texasporus) (protein)
chain: QLFEEQVDKNPNQIALVFKEEKLTYGEVNAKANQLAYVLRKQGVQPNDVIGIITERSPEMIIGILAIFKAGGAYMPIDPSYPAERIQYMLQDNQTKLLLVQKQEMIPANYQGEVLFLTQESWMHEETSNPAHITQAQALAYVMYTSGSTGEPKGILTTHQNIMKTVIHNGYVEITPGDCLSQLSNYAFDGSTFEIYGALLHGATLLLVTKEAVLNMNELARLIKKEQVTVSFMTTALFNTLVDLDITCFQSIRKVLFGGELASVKHVLKALDYLGEHRVINVYGPTETTVYATYYSVDHSMLTRASVPIGRPINNTKAYIVNTDGQPQPIGVVGELCIGGEGVACGYLNRPELTKKHFVDNPFVLGERMYCTGDLARFLPDGNIEYIGRMDEQVKIRGHRIELGEIEKVLLQHPAISETVLLAKRDEQGHSYLCAYIVGQVFWTVTELRQHLMESLPEYMVPSYFIEIEKLPLTANGKVDKRALPEPDRKMGSAYV
B2: Module 5 A-domain protein (Brevibacillus texasporus) (protein)
chain: DKTIHQQFEQKVEENPDQIALLFKDKEITYGQLNAKANQFARVLRKHGVQPDQVVGLITDRSIEMMIGILAILKAGGAYLPIDPSYPLERITYMLEDSQAQLLIVQEAAMIPEGYQGKVLLLAEECWMQEEASNLELINDAQDLAYVMYTSGSTGKPKGNLTTHQNILRTIINNGFIEIVPADRLLQLSNYAFDGSTFDIYSALLNGATLVLVPKEVMLNPMELARIVREQDITVSFMTTSLFHTLVELDVTSMKSIRKVVFGGEKASYKHVEKALDYLGEGRLVNGYGPTETTVFATTYTVDSSIKETGIVPIGRPLNNTSVYILNENNQPQPIGVPGELCVGGAGIARGYLNRPELTAERFVDNPFLVGDRMYRTGDMARFLPDGNIEYIGRMDEQVKIRGHRIELGEIEKSLLEYPAISEAVLVAKRDEQGHSYLCAYVVSTDQWTVAKVRQHILEALPEYMVPSYFVELEKLPLTSNGKVDKRALPEPDRVITNEYV
B3: Module 8 A-domain protein (Brevibacillus texasporus) (protein)
chain: ALVFGEAQLTYRELNEKANQMARGLRKQGVLPDQVIGLLTDRSLEMIIAILAIFKAGGAYMPIDPSYPSERIQYMLADSRTHLLLVQKAEMIPANYQGEVLLLTEDSWMDENTDNLDLVNQAQDLAYVMYTSGSTGKPKGNLTTHQNIVKTIMNNGYMEITPNDRLLQLSNYAFDGSTFDIYSALLNGASLILVPTHVLMNPTDLASVIQDQHITVSFMTTSLFNTLVELDVTSLKHMRKVVFGGEKASIKHVEKALDYLGAGRLVNGYGPTETTVFATTYTVDHTIKETGIMPIGRPLNNTKVFILGADNQLQPIGALGELCVSGEGLARGYLNLPELTADRFVENPFMRGERMYRTGDLARWLPDGSIEYVGRIDEQVKIRGHRIELGEIEARLLEHPAISETVLLAKQDEQGHSFLCAYLVTNGAWSVAELRKHIKETLPDSMVPSYFIEIDKMPLTSNGKADKRALPEPDVQQVSSY

Key:
[1] = biological target: Module 8 A-domain protein (Brevibacillus texasporus, UniProt Q2VQ14); assay: ATP-PPi exchange assay, Module 8 A-domain; format: biochemical; settings: 0.5 mM amino acid, 2 μM protein, 37° C., 15 min
Method: (§1) Cloning, overexpression, and purification of His10-tagged BT A-domain proteins. DNA fragments encoding the A-domains of the BT NRPS Modules 8, 5, 7, 4 and 2 (Bt8A, Bt5A, Bt7A, Bt4A and Bt2A) were PCR-amplified and the PCR products were inserted into the His10-tag recombinant protein expression vector pET16b (Novagen). The A-domain borders were determined as defined by (Konz, et al., 1999). The expression constructs were transformed into the E.coli BL21 -AI strain (Invitrogen). Transformants were grown in L-broth at 37° C. to an A600 of 0.6 and then induced with 1 mM IPTG (isopropyl-β-D-thiogalactopyranoside) plus 0.2% L-arabinose. The cells were allowed to grow for two additional hours at 30° C. before being harvested. Purification of the His10-tag recombinant proteins was achieved using the TALON metal affinity resins (BD Biosciences) under conditions recommended in the manual with modifications. Briefly, the E. coli cells were broken by sonication. Cell lysates were cleared by centrifugation at 25,000× g for one hour. […] Eluted proteins were dialyzed against a buffer (50 mM HEPES, pH 8.0, 100 mM sodium chloride, 10 mM magnesium chloride, and 1 mM EDTA) and then analyzed with SDS PAGE plus Coomassie Blue staining. […] Concentrations of the purified proteins were determined by using the calculated molar extinction coefficient for the A280.
(§2) ATP-PPi exchange assay. […] The charcoal/water suspension was added to a scintillation vial containing 5.0 ml of scintillation fluid, and the bound radioactivity was determined by liquid scintillation counting. […]
(§3) Since a purified recombinant A-domain of an NRPS module can selectively and efficiently activate the cognate amino acid substrate of the NRPS module in an ATP-PPi exchange assay (Konz, et al., 1999; Mootz & Marahiel, 1997), ATP-PPi exchange assays have been used to experimentally establish NRPS module specificities and novel NRPS codons. […] A-domain specificities were determined in ATP-PPi exchange and aa Km assays (see Methods and Materials), and the results are shown in FIG. 5. […]

[2] = biological target: T1, Module 7 A-domain protein; assay: ATP-PPi exchange assay, Module 7 A-domain; format: biochemical
Method: as §1, with “harvested.” for “harvested. Purification of the His10-tag recombinant proteins was achieved using the TALON metal affinity resins (BD Biosciences) under conditions recommended in the manual with modifications. Briefly, the E. coli cells were broken by sonication. Cell lysates were cleared by centrifugation at 25,000× g for one hour.”
as §2

[3] = biological target: Module 5 A-domain protein (Brevibacillus texasporus, UniProt Q2VQ15); assay: ATP-PPi exchange assay, Module 5 A-domain; format: biochemical; settings: 0.5 mM amino acid, 0.2 μM protein, 37° C., 15 min
Method: as §1, §2, §3

[4] = biological target: Module 4 A-domain protein (Brevibacillus texasporus, UniProt Q2VQ15); assay: ATP-PPi exchange assay, Module 4 A-domain; format: biochemical; settings: 0.5 mM amino acid, 0.2 μM protein, 37° C., 15 min
Method: as §1, §2, §3

[5] = test system: Module 2 A-domain protein; assay: ATP-PPi exchange assay, Module 2 A-domain; format: biochemical, Brevibacillus texasporus; settings: 0.5 mM amino acid, 37° C., 15 min
Method: Cloning, overexpression, and purification of His10-tagged BT A-domain proteins. DNA fragments encoding the A-domains of the BT NRPS Modules 8, 5, 7, 4 and 2 (Bt8A, Bt5A, Bt7A, Bt4A and Bt2A) were PCR-amplified and the PCR products were inserted into the His10-tag recombinant protein expression vector pET16b (Novagen). The A-domain borders were determined as defined by (Konz, et al., 1999). The expression constructs were transformed into the E.coli BL21 -AI strain (Invitrogen). Transformants were grown in L-broth at 37° C. to an A600 of 0.6 and then induced with 1 mM IPTG (isopropyl-β-D-thiogalactopyranoside) plus 0.2% L-arabinose. The cells were allowed to grow for two additional hours at 30° C. before being harvested. Purification of the His10-tag recombinant proteins was achieved using the TALON metal affinity resins (BD Biosciences) under conditions recommended in the manual with modifications. Briefly, the E. coli cells were broken by sonication. Cell lysates were cleared by centrifugation at 25,000× g for one hour. His-tagged recombinant proteins were then incubated with the TALON resin, washed, and eluted with 500 mM imidazole. Eluted proteins were dialyzed against a buffer (50 mM HEPES, pH 8.0, 100 mM sodium chloride, 10 mM magnesium chloride, and 1 mM EDTA) and then analyzed with SDS PAGE plus Coomassie Blue staining. […] Concentrations of the purified proteins were determined by using the calculated molar extinction coefficient for the A280.
ATP-PPi exchange assay. ATP-PPi exchange assays were performed to determine the substrate specificity of an A-domain. ATP-PPi exchanges were assayed as previously described (Stachelhaus, et al., 1998) with minor modifications. The assay mixture contained 50 mM HEPES (pH 8.0), 100 mM NaCl, 10 mM MgCl2, 2 mM ATP, 0.5 mM amino acid, 0.05 mM PPi, 0.15 μCi tetrasodium [^32P]pyrophosphate. Exchange was initiated by addition of purified recombinant A-domain proteins to a total volume of 0.1 ml. The protein concentrations were 0.2 μM for Module 4 and Module 5 A-domains while 2 μM for Module 7 and Module 8 A-domains. After incubation at 37° C. for 15 min, the reaction was stopped by addition of 0.5 ml of Termination Mix (100 mM tetrasodium pyrophosphate, 3.5% HClO4, and 1.6% [w/v] activated charcoal). The charcoal was pelleted by centrifugation, washed first with 40 mM pyrophosphate plus 1.4% perchloric acid and then with water, and was re-suspended in 0.5 ml of water. The charcoal/water suspension was added to a scintillation vial containing 5.0 ml of scintillation fluid, and the bound radioactivity was determined by liquid scintillation counting. The apparent Km values were determined with substrate concentrations ranging from 0.1 to 10 mM.
Since a purified recombinant A-domain of an NRPS module can selectively and efficiently activate the cognate amino acid substrate of the NRPS module in an ATP-PPi exchange assay (Konz, et al., 1999; Mootz & Marahiel, 1997), ATP-PPi exchange assays have been used to experimentally establish NRPS module specificities and novel NRPS codons. Recombinant A-domains of Modules 8, 5, 7 ,4 and 2 of the BT NRPS were produced and purified as described in Methods and Materials. Almost completely soluble recombinant A-domain proteins were obtained. A-domain specificities were determined in ATP-PPi exchange and aa Km assays (see Methods and Materials), and the results are shown in FIG. 5. […]

[6] = substrate: CC[C@H](C)[C@H](N)C(=O)O; assay: ATP-PPi exchange assay, Module 4 A-domain; format: biochemical, Brevibacillus texasporus; settings: other: substrate 0.1 to 10 mM; pH 8.0
Method: as §1, with “harvested.” for “harvested. Purification of the His10-tag recombinant proteins was achieved using the TALON metal affinity resins (BD Biosciences) under conditions recommended in the manual with modifications. Briefly, the E. coli cells were broken by sonication. Cell lysates were cleared by centrifugation at 25,000× g for one hour.”
as §2

[7] = substrate: CC(C)[C@H](N)C(=O)O; assay: ATP-PPi exchange assay, Module 5 A-domain; format: biochemical, Brevibacillus texasporus; settings: other: substrate 0.1 to 10 mM; pH 8.0
Method: as §1, with “harvested.” for “harvested. Purification of the His10-tag recombinant proteins was achieved using the TALON metal affinity resins (BD Biosciences) under conditions recommended in the manual with modifications. Briefly, the E. coli cells were broken by sonication. Cell lysates were cleared by centrifugation at 25,000× g for one hour.”
as §2

[8] = substrate: CC[C@H](C)[C@H](N)C(=O)O; assay: ATP-PPi exchange assay, Module 5 A-domain; format: biochemical, Brevibacillus texasporus; settings: other: substrate 0.1 to 10 mM; pH 8.0
Method: as §1, with “harvested.” for “harvested. Purification of the His10-tag recombinant proteins was achieved using the TALON metal affinity resins (BD Biosciences) under conditions recommended in the manual with modifications. Briefly, the E. coli cells were broken by sonication. Cell lysates were cleared by centrifugation at 25,000× g for one hour.”
as §2

[9] = substrate: CC(C)[C@H](N)C(=O)O; assay: ATP-PPi exchange assay, Module 8 A-domain; format: biochemical, Brevibacillus texasporus; settings: other: substrate 0.1 to 10 mM; pH 8.0
Method: as §1, with “harvested.” for “harvested. Purification of the His10-tag recombinant proteins was achieved using the TALON metal affinity resins (BD Biosciences) under conditions recommended in the manual with modifications. Briefly, the E. coli cells were broken by sonication. Cell lysates were cleared by centrifugation at 25,000× g for one hour.”
as §2

Molecule	relative substrate activation (highest activity defined as 100%) [1] [%]	relative substrate activation (highest activity defined as 100%) [3] [%]	relative substrate activation (highest activity defined as 100%) [4] [%]	relative substrate activation (highest activity defined as 100%) [5] [%]	other results
NCCCC[C@H](N)C(=O)O [L-Lys]	10	–	–	–	substrate activation ([2]; 0.5 mM amino acid, 2 μM protein, 20 proteinogenic amino acids and L-Orn tested): only amino acid that activated; Km ([2]; substrate 0.1 to 10 mM, read-out: apparent Km): 1120 µM
CC(C)C[C@H](N)C(=O)O [L-Leu]	–	17	7	98	–
CC(C)[C@H](N)C(=O)O [L-Val]	100	100	9	67	–
B1	–	–	–	–	Km [6]: 500 µM
B2	–	–	–	–	Km [7]: 1110 µM; Km [8]: 2780 µM
B3	–	–	–	–	Km [9]: 2750 µM
